According to ChEMBL document CHEMBL1201862, “PubChem BioAssay data set” (2004):
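96-well plates; 48 h exposure; 5 concentrations. Endpoints by linear interpolation between flanking doses. Not reached: highest tested concentration assigned. At the GI50, growth is halved.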 Activity calls are given as the source filed them. Rule as the data show it: active = GI50 up to about 1.1 µM and inactive = higher.

How the values were obtained:
Experiment in all cases: DTP human tumour cell line panel, 48 h
A498 = tested on: A498
A549 = tested on: A549
COLO 205 = tested on: COLO 205
HCT-15 = tested on: HCT-15
HOP-92 = tested on: HOP-92
HT-29 = tested on: HT-29
IGROV-1 = tested on: IGROV-1
KM12 = tested on: KM12
NCI-H226 = tested on: NCI-H226
NCI-H23 = tested on: NCI-H23
NCI-H460 = tested on: NCI-H460
NCI-H522 = tested on: NCI-H522
OVCAR-4 = tested on: OVCAR-4
RXF 393 = tested on: RXF 393
SF-268 = tested on: SF-268
SN12C = tested on: SN12C
SNB-19 = tested on: SNB-19
SW-620 = tested on: SW-620
U-251 = tested on: U-251
TK-10 = tested on: TK-10

Row | SMILES | GI50 (A498) | GI50 (A549) | GI50 (COLO 205) | GI50 (HCT-15) | GI50 (HOP-92) | GI50 (HT-29) | GI50 (IGROV-1) | GI50 (KM12) | GI50 (NCI-H226) | GI50 (NCI-H23) | GI50 (NCI-H460) | GI50 (NCI-H522) | GI50 (OVCAR-4) | GI50 (RXF 393) | GI50 (SF-268) | GI50 (SN12C) | GI50 (SNB-19) | GI50 (SW-620) | GI50 (U-251) | GI50 (TK-10)
1 | SC1=Nc2ccccc2-c2nc(-c3ccccc3)cc(-c3ccc(Br)cc3)c2C1 | 1.01 µM (active) | 2.32 µM (inactive) | 2.66 µM (inactive) | 3.54 µM | 1.95 µM (inactive) | 2.07 µM (inactive) | 1.22 µM (inactive) | 12 µM (inactive) | 3.18 µM (inactive) | 2.65 µM (inactive) | 0.859 µM (active) | 1.68 µM (inactive) | 0.433 µM (active) | 1.7 µM (inactive) | 2.1 µM (inactive) | 0.791 µM (active) | 1.21 µM (inactive) | 2.4 µM (inactive) | 0.982 µM (active) | –
2 | C[C@@H]1CC[C@H]2[C@H]1[C@H]1[C@@H](CC[C@]2(C)N=C=S)C1(C)C | – | – | 18.5 µM (inactive) | 27.8 µM | 30.7 µM (inactive) | 19.9 µM (inactive) | 45 µM (inactive) | 17 µM (inactive) | 17.7 µM (inactive) | 29.5 µM (inactive) | 20.4 µM (inactive) | – | 44.9 µM (inactive) | 15.5 µM (inactive) | – | 19.6 µM (inactive) | > 10 µM (inactive) | 15.1 µM (inactive) | 16.7 µM (inactive) | 41.3 µM (inactive)
3 | N#C[C@H](OC1OC(COC2OC(CO)C(O)C(O)C2O)C(O)C(O)C1O)c1ccccc1 (stereo partly specified) | > 11.6 µM (inactive) | > 250 µM (inactive) | > 250 µM (inactive) | > 250 µM | 2.5 µM (inactive) | > 250 µM (inactive) | > 250 µM (inactive) | > 250 µM (inactive) | 191 µM (inactive) | > 250 µM (inactive) | > 250 µM (inactive) | > 200 µM (inactive) | > 250 µM (inactive) | > 250 µM (inactive) | > 250 µM (inactive) | > 250 µM (inactive) | > 250 µM (inactive) | > 250 µM (inactive) | > 250 µM (inactive) | –
4 | CCCCCCCCCCCCCC(=O)OC1C(O)C(CO)OC(OC)C1NC(=O)N(CCCl)N=O (stereo unspecified) | – | 83.9 µM (inactive) | > 100 µM (inactive) | > 100 µM | – | 56.6 µM (inactive) | > 100 µM (inactive) | > 100 µM (inactive) | > 100 µM (inactive) | 28.6 µM (inactive) | 18.7 µM (inactive) | 72.9 µM (inactive) | > 100 µM (inactive) | 47 µM (inactive) | 6.27 µM (inactive) | 37 µM (inactive) | 23.7 µM (inactive) | > 100 µM (inactive) | 25.6 µM (inactive) | > 100 µM (inactive)
5 | Cc1ccc(NC(=O)OCC(COc2ccc(Cl)cc2)OC(=O)Nc2ccc(C)cc2)cc1 (stereo unspecified) | 13.2 µM (inactive) | 13.7 µM (inactive) | 39.6 µM (inactive) | 29.7 µM | 11.1 µM (inactive) | 15.2 µM (inactive) | 9.79 µM (inactive) | 23 µM (inactive) | 16.5 µM (inactive) | 25.9 µM (inactive) | 25.9 µM (inactive) | 29.8 µM (inactive) | 13.7 µM (inactive) | 12.9 µM (inactive) | 22.5 µM (inactive) | 20.4 µM (inactive) | 19.6 µM (inactive) | 17.1 µM (inactive) | 28.4 µM (inactive) | 12.4 µM (inactive)
6 | N#Cc1ccc(C2Oc3ccc(Cl)cc3C=C2[N+](=O)[O-])cc1 (stereo unspecified) | 2.38 µM (inactive) | 1.85 µM (inactive) | 0.74 µM (active) | 1.07 µM | 1.39 µM (inactive) | 2.4 µM (inactive) | 1.61 µM (inactive) | 1.9 µM (inactive) | 10.6 µM (inactive) | 1.48 µM (inactive) | 2.22 µM (inactive) | 1.34 µM (inactive) | 1.79 µM (inactive) | 4.99 µM (inactive) | 1.91 µM (inactive) | 1.31 µM (inactive) | 2.67 µM (inactive) | 0.845 µM (active) | 1.74 µM (inactive) | 1.85 µM (inactive)
7 | O=C1CCC23CC(C=CC=C12)n1c(=O)n(-c2ccccc2)c(=O)n13 (stereo unspecified) | > 100 µM (inactive) | > 63.8 µM (inactive) | > 100 µM (inactive) | > 78.7 µM | > 100 µM (inactive) | > 88.9 µM (inactive) | > 100 µM (inactive) | > 100 µM (inactive) | > 63.4 µM (inactive) | 99.1 µM (inactive) | > 100 µM (inactive) | > 100 µM (inactive) | > 100 µM (inactive) | 99.3 µM (inactive) | > 73.6 µM (inactive) | > 100 µM (inactive) | > 100 µM (inactive) | 43.2 µM (inactive) | – | –
8 | Cc1cc2c(cc1C)[n+]([O-])c(C#N)c(Cl)[n+]2[O-] | 19.7 µM (inactive) | 18.6 µM (inactive) | 6.92 µM (inactive) | 4.35 µM | 16.2 µM (inactive) | 4.44 µM (inactive) | 10.6 µM (inactive) | – | 21.7 µM (inactive) | 11.7 µM (inactive) | 11.7 µM (inactive) | 11 µM (inactive) | 13.9 µM (inactive) | 13.2 µM (inactive) | 18.1 µM (inactive) | 13.6 µM (inactive) | 34.3 µM (inactive) | 11.7 µM (inactive) | 13.8 µM (inactive) | 14.4 µM (inactive)
9 | CC(C)=CCC/C(C)=C/C=C/C(C)=C/C1C[C@@]2(C(O)O1)[C@H](CCCO)/C(=C(/C)C=O)CC[C@]2(C)O (stereo partly specified) | – | 7.8 µM (inactive) | 1.08 µM (active) | 16.3 µM | < 0.01 µM (active) | 16.4 µM (inactive) | 22.3 µM (inactive) | – | 22.4 µM (inactive) | > 10 µM (inactive) | 6.64 µM (inactive) | 19.5 µM (inactive) | – | 18.6 µM (inactive) | 15.2 µM (inactive) | 15.6 µM (inactive) | 19.1 µM (inactive) | 10.4 µM (inactive) | > 10 µM (inactive) | 25.5 µM (inactive)
